{
  "source": "patent US20200163984A1",
  "about": "“USE OF ISOVALERYL SPIRAMYCIN I, II AND/OR III IN MANUFACTURING MEDICAMENT FOR TREATING AND/OR PREVENTING TUMOR, AND MEDICAMENT” (SHENYANG FUYANG PHARMACEUTICAL TECHNOLOGY CO., LTD., priority 2017, published 2020)",
  "key": {"[1]": {"tested_on": "human breast cancer cells MCF-7", "conditions": "MCF-7, MTT, 48 hours"}, "[2]": {"tested_on": "human breast cancer cells MDA-MB-231", "conditions": "MDA-MB-231, MTT, 48 hours"}, "[3]": {"tested_on": "human cervical cancer cell HeLa", "conditions": "MTT, 48 hours"}, "[4]": {"tested_on": "human esophageal cancer cell TE-1", "conditions": "TE-1, MTT, 48 hours"}, "[5]": {"tested_on": "human glioma cell U251", "conditions": "U251, MTT, 48 hours"}, "[6]": {"tested_on": "human hepatoma cells HepG2", "conditions": "HepG2, MTT, 48 hours"}, "[7]": {"tested_on": "human large cell lung cancer cells H1299", "conditions": "H1299, MTT, 48 hours"}, "[8]": {"tested_on": "human large cell lung cancer cells H460", "conditions": "H460, MTT, 48 hours"}, "[9]": {"tested_on": "human pancreatic cancer cell PANC-1", "conditions": "PANC-1, MTT, 48 hours"}, "[10]": {"tested_on": "human renal clear cell adenocarcinoma cell 786-O", "conditions": "MTT, 48 hours"}, "[11]": {"tested_on": "transplanted tumor of human thyroid cancer cell TPC-1", "experiment": "TPC-1 transplanted tumor in nude mice", "conditions": "for Tumor Volume (mm3) (d30): d 30", "method": "Then cell concentration was adjusted to 1×10^7/ml with matrigel, then each nude mouse was inoculated subcutaneously with 0.2 ml of cells at its right armpit and recorded as the first day of inoculation. When the tumor grows to be greater than or equal to 100 mm^3, the mice were randomly divided into 11 groups with 6 mice in each group: isovaleryl spiramycin I groups with doses of 25, 50 and 100 mg/kg, isovaleryl spiramycin II groups with doses of 25, 50 and 100 mg/kg, and isovaleryl spiramycin III groups with doses of 25, 50 and 100 mg/kg. Each group was continuously administered intragastrically for 30 days with a dose of 20 ml/kg. The mice were sacrificed the next day after drug withdrawal and the indicators were tested. The long diameter and short diameter of the tumor, and the body weight of each mouse were recorded every 3 days from drug administration to nude mouse sacrifice.\nThe body weight of the nude mice and the long diameter (a) and short diameter (b) of the transplanted tumor were measured every 3 days, and the tumor volume (v), relative tumor volume (RTV) and relative tumor proliferation rate (T/C) are calculated respectively according to the following formulas, wherein V=a×b^2/2; RTV=V/V0 (V0 is the tumor volume before administration, V is the tumor volume before sacrifice), and T/C (%)=treatment group RTV/model control group RTV×100%.\nEach mouse was weighed and sacrificed. After the tumor was completely stripped off from the body of the mouse, the non-tumor tissues such as blood stains and fat were removed to weigh the tumor and calculate the tumor growth inhibition rate. The average tumor weight of each group of mice is used as an indicator of efficacy. Tumor growth inhibition rate (%)=(1−the average tumor weight of the treatment group/the average tumor weight of the model group)×100%."}, "[12]": {"conditions": "TPC-1, high dose (100 mg/kg in method) i.g. 30 days"}, "[13]": {"conditions": "TPC-1, low dose (25 mg/kg in method) i.g. 30 days"}, "[14]": {"conditions": "TPC-1, medium dose (50 mg/kg in method) i.g. 30 days"}},
  "data": [
    {"smiles": "CCC(=O)O[C@@H]1CC(=O)O[C@H](C)C/C=C/C=C/[C@H](O[C@H]2CC[C@H](N(C)C)[C@@H](C)O2)[C@H](C)C[C@H](CC=O)[C@H](O[C@@H]2O[C@H](C)[C@@H](O[C@H]3C[C@@](C)(O)[C@@H](OC(=O)CC(C)C)[C@H](C)O3)[C@H](N(C)C)[C@H]2O)[C@H]1OC", "note": "[Isovaleryl spiramycin III, isovaleryl spiramycin III]", "values": [
      {"measurement": "IC50", "setting": "[1]", "result": "32.44 ± 1.18", "unit": "µg/mL"},
      {"measurement": "IC50", "setting": "[2]", "result": "29.47 ± 0.28", "unit": "µg/mL"},
      {"measurement": "IC50", "setting": "[3]", "result": "15.86 ± 0.62", "unit": "µg/mL"},
      {"measurement": "IC50", "setting": "[4]", "result": "20.19 ± 1.83", "unit": "µg/mL"},
      {"measurement": "IC50", "setting": "[5]", "result": "16.46 ± 1.54", "unit": "µg/mL"},
      {"measurement": "IC50", "setting": "[6]", "result": "27.42 ± 3.52", "unit": "µg/mL"},
      {"measurement": "IC50", "setting": "[7]", "result": "32.40 ± 0.41", "unit": "µg/mL"},
      {"measurement": "IC50", "setting": "[8]", "result": "28.80 ± 0.19", "unit": "µg/mL"},
      {"measurement": "IC50", "setting": "[9]", "result": "13.18 ± 0.23", "unit": "µg/mL"},
      {"measurement": "IC50", "setting": "[10]", "result": "10.52 ± 0.56", "unit": "µg/mL"},
      {"measurement": "Relative Tumor Proliferation Rate (T/C)", "setting": "[11]; [12]", "result": 34.75, "unit": "%"},
      {"measurement": "tumor growth inhibition rate", "setting": "[11]; [12]", "result": 62.94, "unit": "%"},
      {"measurement": "Relative Tumor Proliferation Rate (T/C)", "setting": "[11]; [13]", "result": 61.93, "unit": "%"},
      {"measurement": "tumor growth inhibition rate", "setting": "[11]; [13]", "result": 39.06, "unit": "%"},
      {"measurement": "tumor volume and relative tumor volume compared with the model group", "setting": "[11]; TPC-1, low, medium and high doses, P<0.05", "result": "significantly lower"},
      {"measurement": "Relative Tumor Proliferation Rate (T/C)", "setting": "[11]; [14]", "result": 45.01, "unit": "%"},
      {"measurement": "tumor growth inhibition rate", "setting": "[11]; [14]", "result": 60.25, "unit": "%"},
      {"measurement": "Inhibition Rate (%)", "setting": "[11]; dose 25 mg/kg", "result": 39.06, "unit": "%"},
      {"measurement": "Relative Tumor Proliferation Rate (T/C)", "setting": "[11]; dose 25 mg/kg", "result": 61.93, "unit": "%"},
      {"measurement": "Relative Tumor Volume (RTV)", "setting": "[11]; dose 25 mg/kg", "result": "10.19 ± 2.79"},
      {"measurement": "Tumor Weight", "setting": "[11]; dose 25 mg/kg", "result": "1.47 ± 0.44", "unit": "g"},
      {"measurement": "Tumor Volume (mm3) (d 1)", "setting": "[11]; dose 25 mg/kg", "result": "119.35 ± 3.84", "unit": "mm3"},
      {"measurement": "Tumor Volume (mm3) (d30)", "setting": "[11]; dose 25 mg/kg", "result": "1210.76 ± 295.50", "unit": "mm3"},
      {"measurement": "Inhibition Rate (%)", "setting": "[11]; dose 50 mg/kg", "result": 60.25, "unit": "%"},
      {"measurement": "Relative Tumor Proliferation Rate (T/C)", "setting": "[11]; dose 50 mg/kg", "result": 45.01, "unit": "%"},
      {"measurement": "Relative Tumor Volume (RTV)", "setting": "[11]; dose 50 mg/kg", "result": "7.41 ± 2.51"},
      {"measurement": "Tumor Weight", "setting": "[11]; dose 50 mg/kg", "result": "0.96 ± 0.43", "unit": "g"},
      {"measurement": "Tumor Volume (mm3) (d 1)", "setting": "[11]; dose 50 mg/kg", "result": "116.75 ± 5.22", "unit": "mm3"},
      {"measurement": "Tumor Volume (mm3) (d30)", "setting": "[11]; dose 50 mg/kg", "result": "866.73 ± 306.25", "unit": "mm3"},
      {"measurement": "Inhibition Rate (%)", "setting": "[11]; dose 100 mg/kg", "result": 62.94, "unit": "%"},
      {"measurement": "Relative Tumor Proliferation Rate (T/C)", "setting": "[11]; dose 100 mg/kg", "result": 34.75, "unit": "%"},
      {"measurement": "Relative Tumor Volume (RTV)", "setting": "[11]; dose 100 mg/kg", "result": "5.72 ± 3.04"},
      {"measurement": "Tumor Weight", "setting": "[11]; dose 100 mg/kg", "result": "0.90 ± 0.44", "unit": "g"},
      {"measurement": "Tumor Volume (mm3) (d 1)", "setting": "[11]; dose 100 mg/kg", "result": "115.43 ± 7.58", "unit": "mm3"},
      {"measurement": "Tumor Volume (mm3) (d30)", "setting": "[11]; dose 100 mg/kg", "result": "654.78 ± 338.68", "unit": "mm3"},
      {"measurement": "mouse weight compared with the model group", "setting": "[11]; mouse, in vivo", "result": "no significant changes"},
      {"measurement": "Body Weight (g) (d1)", "setting": "[11]; mouse, in vivo, 25 mg/kg", "result": "21.13 ± 1.48", "unit": "g"},
      {"measurement": "Body Weight (g) (d30)", "setting": "[11]; mouse, in vivo, 25 mg/kg", "result": "23.49 ± 1.02", "unit": "g"},
      {"measurement": "Body Weight (g) (d1)", "setting": "[11]; mouse, in vivo, 50 mg/kg", "result": "21.43 ± 1.85", "unit": "g"},
      {"measurement": "Body Weight (g) (d30)", "setting": "[11]; mouse, in vivo, 50 mg/kg", "result": "24.06 ± 1.71", "unit": "g"},
      {"measurement": "Body Weight (g) (d1)", "setting": "[11]; mouse, in vivo, 100 mg/kg", "result": "20.76 ± 2.13", "unit": "g"},
      {"measurement": "Body Weight (g) (d30)", "setting": "[11]; mouse, in vivo, 100 mg/kg", "result": "23.72 ± 1.60", "unit": "g"}
    ]}
  ]
}
